{"source": "paper PMC5673907", "about": "(Clinical and Translational Science, 2017)", "origin": "cited, not measured here", "test_system": "HDL inflammatory index", "conditions": "simvastatin 40 mg daily", "data": [{"smiles": "CCC(C)(C)C(=O)O[C@H]1C[C@@H](C)C=C2C=C[C@H](C)[C@H](CC[C@@H]3C[C@@H](O)CC(=O)O3)[C@H]21", "note": "[simvastatin]", "values": [{"measurement": "Mean HII after statin", "value": "above 1.0 UR"}, {"measurement": "Drop in HII", "setting": "6 weeks, statin-naive CHD/equivalent risk", "value": 28, "unit": "%"}]}]}
